Data as given in patent US6043283A, “Tyramine compounds and their neuronal effects” (priority 1997, dated 2000).
Entries after “also recorded” stand apart in the source; their conditions may differ. Where two headings read alike, the source gives them in different places. Ends that are not written are not given here.

How the values were obtained:
[1] = system: NTox released by Aβ1-42-stimulated microglia (neuron killing); assay: cells; type: cell-based, rat; settings: for protective effect: 10 μM, 72 hours, FIG. 30; for neuroprotective effect: Aβ1-42-stimulated microglia
From the text: . Briefly, hippocampal cells obtained from embryonic stage 18 rat fetuses were dispersed mechanically in the presence of 0.125% trypsin and plated onto poly-L-lysine coated glass coverslips in 24 well plates at 250,000 cells per well (resulting in adhering cell densities of about 1250 cells per mm^2) in chemically-defined N2 culture media containing 5% fetal bovine serum. Gradual reduction of serum began on day 10 in vitro with daily 1:1 volume replacements with chemically-defined media, until a final concentration of 0.6% serum was achieved. […]; see FIG. 18). In order to eliminate microglia, cultures were exposed to saporin (sap; a ribosome-inactivating protein; Davis and Wiley, 1989) coupled to acetylated LDL (ac-LDL) at a concentration of 10 μg/ml for 12 hours. […] Cultures depleted of microglia were then exposed to test substances in the presence or absence of exogenous microglia (100,000 cells per culture). […]. Controls included cultures without saporin-treatment, cultures without test substances, and cultures with test substances but lacking microglia.
(§1) On day 14 of culture, immediately following saporin treatment, test substances were added to the hippocampal cultures. Synthetic peptide were supplied as 1 mM stock solutions in 0.1 M phosphate buffered saline, pH 7.2, stored for at least 1 week at 4° C. before use. After 72 hours incubation, the cultures were fixed in 4% paraformaldehyde at room temperature for 18 hours and immuno-stained by overnight incubation with a mixture of anti-neurofilament antibodies (NF; SMI-311, 1:600; Stemberger Monoclonals, Inc.) plus anti-MAP-2 (Boehringer Mannheim, 184959; 1:600) at 4° C. in the presence of 2% horse serum and 0.3% triton X-100 to delineate both neuronal cell bodies and neurites. Astroglia were visualized using sheep anti-glial fibrillary acidic protein (GFAP, Sigma) as described by Giulian et al., 1989. Finally, to label all cell nuclei, the coverslips were exposed to 0.01% bisbenzimide (Hoechst 33258; Sigma) in PBS, pH 6.9, and rinsed in distilled water and mounted in glycerin. Immuno-labeled cells per field and nuclei per field were scored at 200X magnification using fluorescence microscopy. Data were expressed as % mean survival expressed in terms of parallel untreated control cultures after scoring at least 20 randomly selected fields for each of 3 coverslips.
The procedures described above and by Giulian et al, 1996, provided for the identification of tyramine compounds as therapeutic agents for neurodegenerative diseases or disorders including, for example, Alzheimer's disease. Cells from the brain of fetal rats were grown in tissue cultures. Microglial populations within the cultures were controlled following the method described in Example 5 above. Known amounts of Aβ peptides coupled to microspheres were added to the culture. The Aβ spheres stimulated the microglia to release NTox, which in turn destroyed the neurons. The neurons in the cultures were monitored for survival by immuno-staining.
Generally, drug assays involve the addition of known concentrations of a test agent over a range of concentrations. After 72 hours, the experiment is stopped and the neurons are identified by immuno-staining. The data is expressed as % neuronal survival […]. Dose response curves are then used to estimate Effective Dose50 % (ED50) of neuroprotective agents. […].
In this experiment, about 65% of the neurons were destroyed by the Aβ-stimulated microglia. […] Other tyramine compounds, including tyrosine esters, were neuroprotective (FIG. 30).
Following the methods described herein, numerous compounds were examined to determine their neuroprotective activity. […]

[2] = system: microglia; assay: inhibition of SpheresAβ1-42 binding to microglia; set-up: species or system rat; settings: for inhibition of SpheresAβ1-42 binding by GAGs and scavenger receptor ligands: heparin sulfate 50 μg/ml, dextran sulfate 500 μg/ml, ac-LDL 200 μg/ml; for inhibition of SpheresAβ1-42 binding by peptides: 10 μmoles/l, 4 hours, 37° C.
Description: Spheresmal-BSA (which bind to scavenger receptors) or SpheresAβ1-42 were incubated with microglia for 4 hours following pre-treatment of cells with trypsin (5000 units/ml at 37° C. for 60 min followed by inactivation with soybean trypsin inhibitor), with heparinase (heparin lyase EC 4.2.2.7; two consecutive treatments each of 0.01 units/ml for 60 min), or with chondroitinase ABC (chondroitin ABC lyase EC 4.3.3.4; two consecutive treatments each of 0.02 units/ml for 60 min). […] Microglia mixed with hippocampal neurons were treated with combinations of β-D-xyloside (1 mm), heparinase (0.02 units/ml), or chondroitinase (0.04 units/ml) and then exposed to plaques.
Each well then received 250,000 SpheresAβ1-42 or Spheresmal-BSA in the presence or absence of Aβ peptides, GAGs, or scavenger receptor ligands. Binding assays were carried out at 37° C. for 4 hours after which coverslips were dipped 10 times in phosphate buffer and fixed with 4% buffered paraformaldehyde. Microsphere adherence to cells was scored at 200 magnification with phase/fluorescence microscopy. Data, expressed as % inhibition of sphere binding, was calculated from total number of spheres per field noted for control cultures receiving spheres only. Values are based upon at least 3 coverslips from 2 independent experiments. […] Washed spheres were resuspended in 0.2 M borate buffer (pH 8.5) in the presence of 300 μg Aβ or 400 μg BSA in 6% DMSO. After overnight mixing at room temperature, the spheres were washed extensively and blocked by 1 M glycine (pH 8.0) for 30 minutes.

[3] = system: Aβ1-42-stimulated microglia; type: cell-based, rat; settings: for effect of signal transduction inhibitors on microglia stimulated by Aβ1-42: 0.01 to 100 μM, FIG. 11
From the text: Briefly, hippocampal cells obtained from embryonic stage 18 rat fetuses were dispersed mechanically in the presence of 0.125% trypsin and plated onto poly-L-lysine coated glass coverslips in 24 well plates at 250,000 cells per well (resulting in adhering cell densities of about 1250 cells per mm^2) in chemically-defined N2 culture media containing 5% fetal bovine serum. Gradual reduction of serum began on day 10 in vitro with daily 1:1 volume replacements with chemically-defined media, until a final concentration of 0.6% serum was achieved. […] In order to eliminate microglia, cultures were exposed to saporin (sap; a ribosome-inactivating protein; Davis and Wiley, 1989) coupled to acetylated LDL (ac-LDL) at a concentration of 10 μg/ml for 12 hours. […] Cultures depleted of microglia were then exposed to test substances in the presence or absence of exogenous microglia (100,000 cells per culture). […] Controls included cultures without saporin-treatment, cultures without test substances, and cultures with test substances but lacking microglia.
as §1

[4] = system: human microglia stimulated with S5; type: cell-based;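 further: drugs applied at 10 µM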
[5] = system: rat microglia / hippocampal neurons; settings: rat microglia; mostly 1 μmole/l
[6] = system: rat microglia; assay: binding of Aβ-coupled microspheres to microglia; settings: 4 hours at 37° C. (72 h in FIG. 23)

C=CCOC(=O)[C@@H](N)Cc1ccc(O)cc1 [tyrosine allyl ester]
protective effect [1]: neuron survival was markedly enhanced
neuroprotective activity (structure/function) ([1]; Example 14): enhance neuroprotective effects

NNC(=O)[C@@H](N)Cc1ccc(O)cc1 [tyrosine hydrazide]
neuroprotective activity (structure/function) ([1]; Example 14): little or no neuroprotective activity

chondroitin sulfate
inhibition of SpheresAβ1-42 binding by GAGs and scavenger receptor ligands [2]: only heparin sulfate blocked; also recorded: not similar compounds

CCCCOc1ccc(O)cc1 [4-butoxyphenol]
neuroprotective activity (structure/function) ([1]; Example 14): little or no neuroprotective activity

CC(C)(C)OC(=O)[C@@H](N)Cc1ccc(O)c(I)c1 [mono-iodinated tyrosine t-butyl ester]
neuroprotective effect [1]: have neuroprotective effects
neuroprotective activity (structure/function) ([1]; Example 14): enhance neuroprotective effects

CC(=O)NCCc1ccc(O)cc1 [acetylated tyramine]
neuroprotective activity (structure/function) [1]: little or no neuroprotective activity

CC(C(O)c1ccc(O)cc1)N1CCC(Cc2ccccc2)CC1 (stereo not drawn) [ifenprodil]
drug blockade of neuron killing, rat microglia [3]: prevented neuronal loss; also recorded: blocked neuron death
drug blockade of neuron killing, human microglia [4]: blocked neuron death

CCN(CC)CCCC(C)Nc1ccnc2cc(Cl)ccc12 (stereo not drawn) [chloroquine]
effect of immunosuppressive drugs on microglia stimulated by Aβ1-42 ([3]; 0.1 to 10 μM, FIG. 10): had a protective effect; also recorded: inhibit neuron killing

CC(C)(C)OC(=O)[C@@H](N)Cc1cc(I)c(O)c(I)c1 [di-iodinated tyrosine t-butyl ester]
neuroprotective effect [1]: have neuroprotective effects
neuroprotective activity (structure/function) ([1]; Example 14): enhance neuroprotective effects

CN[C@@H](C)[C@H](O)c1ccccc1 [ephedrine]
neuroprotective activity (structure/function) ([1]; Example 14): little or no neuroprotective activity

N[C@@H](Cc1ccc(O)c(O)c1)C(=O)O [DOPA]
neuroprotective activity (structure/function) ([1]; Example 14): little or no neuroprotective activity

heparin sulfate
inhibition of SpheresAβ1-42 binding by GAGs and scavenger receptor ligands [2]: blocked; also recorded: reduction of binding
inhibition of SpheresAβ1-42 binding by GAGs and scavenger receptor ligands ([2]; listed as heparan sulfate): block Aβ binding to microglia

Aβ1-42Gln13Gln14: synthetic peptide Aβ1-42Gln13Gln14
induction of neurotoxic microglia / neuron killing [5]: unable to elicit neurotoxic responses
inhibition of SpheresAβ1-42 binding by peptides [2]: unable to block

NCCc1cc(O)c(O)cc1O [6--OH dopamine]
neuroprotective activity (structure/function) ([1]; Example 14): little or no neuroprotective activity

N[C@@H](Cc1ccc(O)cc1)C(=O)O [tyrosine]
protective effect [1]: no protective effect
neuroprotective activity (structure/function) ([1]; Example 14): little or no neuroprotective activity

Aβ36-42: Aβ peptide residues 36-42 (VGGVVIA; Amyloid-beta protein 42; UniProt P05067 707-713, looked up, fragment)
blocking of Aβ1-42 induced microglial neurotoxicity by peptides ([3]; 10 μmoles/liter peptide, 1 μmole/liter Aβ1-42): did not
binding of peptide-coupled microspheres to microglia [6]: little cell binding
inhibition of SpheresAβ1-42 binding by peptides [2]: did not

N[C@@H](Cc1ccc(O)cc1)C(=O)Nc1ccc2ccccc2c1 [tyrosine β-naphthylamide]
neuroprotective activity (structure/function) ([1]; Example 14): enhance neuroprotective effects

NC(Cc1cc(O)c(O)cc1O)C(=O)O (stereo not drawn) [6--OH DOPA]
neuroprotective activity (structure/function) ([1]; Example 14): little or no neuroprotective activity

O=c1c(-c2ccc(O)cc2)coc2cc(O)cc(O)c12 [genistein]
effect of signal transduction inhibitors on microglia stimulated by Aβ1-42 [3]: had a protective effect

COC(=O)[C@@H](N)Cc1ccc(O)cc1 [tyrosine methyl ester]
neuroprotective activity (structure/function) ([1]; Example 14): little or no neuroprotective activity

NC[C@H](O)c1ccc(O)c(O)c1 [norepinephrine]
neuroprotective activity (structure/function) ([1]; Example 14): little or no neuroprotective activity

NCCc1ccc(O)c(O)c1 [dopamine]
neuroprotective activity (structure/function) [1]: little or no neuroprotective activity

CCOC(=O)[C@@H](N)Cc1ccc(O)cc1 [tyrosine ethyl ester]
neuroprotective activity (structure/function) ([1]; Example 14): little or no neuroprotective activity

tyrosine butyl ester
protective effect [1]: neuron survival was markedly enhanced

Nc1ccccc1N [phenylenediamine]
neuroprotective activity (structure/function) ([1]; Example 14): little or no neuroprotective activity

Aβ17-43-microspheres: Aβ17-43 coupled to fluorescent microspheres (LVFFAEDVGSNKGAIIGLMVGGVVIAT; also: coupled to fluorescent microspheres; UniProt P05067 688-714, looked up, fragment)
binding of peptide-coupled microspheres to microglia [6]: no consistent association with microglia
binding of peptide-coupled microspheres to microglia ([6]; listed as Aβ17-43 coupled microspheres): not engulfed by microglia

NC(=O)[C@@H](N)Cc1ccc(O)cc1 [tyrosinamide]
neuroprotective activity (structure/function) ([1]; Example 14): little or no neuroprotective activity

COc1c(C=O)c(O)cc2c1C(=O)c1ccccc1C2=O [damacanthal]
effect of signal transduction inhibitors on microglia stimulated by Aβ1-42 [3]: had a protective effect

NCCc1ccccc1 [phenethylamine]
neuroprotective activity (structure/function) ([1]; Example 14): little or no neuroprotective activity

Aβ10-42: Aβ peptide residues 10-42 (YEVHHQKLVFFAEDVGSNKGAIIGLMVGGVVIA; Amyloid-beta protein 42; UniProt P05067 681-713, looked up, fragment)
binding of peptide-coupled microspheres to microglia [6]: bound to microglia

CNC[C@H](O)c1ccc(O)c(O)c1 [epinephrine]
neuroprotective activity (structure/function) [1]: little or no neuroprotective activity

Oc1cccc(O)c1 [resorcinol]
neuroprotective activity (structure/function) ([1]; Example 14): little or no neuroprotective activity
